# Laboratory results as given in patent US10421765B2, “Tetrahydropyrido[4,3-d]pyrimidine inhibitors of ATR kinase” (Board of Regents, The University of Texas System, priority 2017, dated 2019).
# Read-outs that look alike come from different tables or passages of the source.
# Legend:
# ATR/ATRIP complex = ATR/ATRIP complex (Homo sapiens (Human), UniProt Q13535); experiment: ATR/ATRIP enzymatic assay (Caliper-based); format: biochemical; conditions: FAM-labeled RAD17 peptide, ATP
# Experimental: Human full-length FLAG-TEV-ATR and His6-ATRIP were co-expressed in HEK293 cells. The cell pellet (20 g) was harvested and lysed in 100 mL of lysis buffer (20 mM Tris-HCl pH 7.5 at room temperature, 137 mM NaCl, 10% glycerol, 1 mM DTT, 1% (v/v) Tween-20, 0.1% (v/v) NP-40, complete protease inhibitor cocktail tablets, phosphatase inhibitor cocktail tablets, 2 mM MgCl2, 0.2 mM EDTA, and 1 mM ATP). After sonication and centrifugation, the supernatant was incubated at 4° C. for 3 hours with 1 mL of anti-FLAG resin (Sigma catalog #A2220) that had been pre-equilibrated in buffer A (20 mM Tris-HCl pH 7.5 at room temperature, 137 mM NaCl, 10% glycerol, 1 mM DTT, 2 mM MgCl2, and 0.2 mM EDTA). The sample was loaded into a column, and then washed with buffer A three times. Protein was subsequently eluted with 2 ml of buffer B (buffer A+200 μg/ml 3×FLAG peptide).
# The ability of new chemical matter to inhibit the ATR catalytic activity in this ATR/ATRIP complex was assessed using a Caliper-based assay. A 2x enzyme solution (i.e., 4 nM enzyme) was prepared using 1× Kinase Reaction Buffer (25 mM HEPES pH 8, 0.0055% Brij-35, 10 mM MnCl2, and 1 mM DTT). A 2x peptide solution was then prepared consisting of 10 uM FAM-labeled RAD17 peptide (GL Biochem, catalog #524315) in 1× Kinase Reaction Buffer supplemented with 2 μM ATP. 10 μL of the 2× enzyme solution was transferred to an assay plate containing 60 nL of test compound (from a 3× serial dilution) in 100% DMSO. Following a 30 minute incubation at 28° C., 10 μL of the 2× peptide solution was then transferred to the same assay plate. The reaction was allowed to incubate at 28° C. for 6 hours. After adding […] of stop buffer (100 mM HEPES pH 7.5, 0.015% Brij-35, 0.2% Coating-3 Reagent (PerkinElmer, catalog #PN760050), and 50 mM EDTA), data were collected on a Caliper instrument. Conversion values were converted to inhibition values via the following equation: % inhibition=(max−conversion)/(max−min)*100, whereby “max” corresponds to the DMSO control and “min” corresponds to the low control. IC50 values were calculated using the following equation in XLFit: Y=Bottom+(Top−Bottom)/1+(IC50/X)^HillSlope).
# [1] = test system: ATR-driven phosphorylation of Chk1 kinase at Serine 345 in HT-29 colorectal adenocarcinoma cells; experiment: pCHK1 cellular assay (CHK1 p-Ser345 AlphaScreen SureFire); format: cell-based; conditions: 4-nitroquinoline N-oxide 12 uM, read-out: Cell IC50 (pCHK1 IC50 values)
# Experimental: Inhibitors of ATR kinase are effective at inhibiting the ATR-driven phosphorylation of the downstream target Chk1 kinase at Serine 345, following the addition of 4-nitroquinoline N-oxide, a chemical used to induce DNA damage. Cellular IC50 for the inhibitors of ATR described herein were measured in HT-29 colorectal adenocarcinoma cells. HT-29 cells were routinely maintained in McCoy's 5A media (ATCC Catalog #30-2007) supplemented with 10% fetal bovine serum (Sigma Catalog #F2442) and 1× Penicillin-Streptomycin (Gibco Catalog #15140-122) using a humidified incubator (37° C., 5% CO2, and ambient O2).
# In preparation for the CHK1 (p-Ser345) ALPHASCREEN® SUREFIRE® assay, cells were harvested and resuspended in McCoy's 5A media supplemented with 10% fetal bovine serum and 1× Penicillin-Streptomycin. Cells were seeded onto a 384-well black CELLSTAR® Tissue Culture Plate (VWR Catalog #89085-314) at a density of 13,000 cells/well in a volume of 40 uL. The microplate was incubated overnight (approximately 20 hours) at 37° C. with 5% CO2 and ambient O2. Stock solutions of the test compounds were prepared in 100% DMSO (Sigma, Catalog #D2650) and serially diluted 1:3 using 100% DMSO. Compounds were additionally diluted 1:33 in culture medium, and 10 ul/well were transferred to the tissue culture plate. Following the compound addition the microplate was incubated at 37° C. for 90 minutes. 10 uL of 4-nitroquinoline N-oxide (Sigma Aldrich Catalog #N8141-1G) diluted in media (final concentration 12 uM) were added to the tissue culture plate followed by a 120 minute incubation at 37° C. The cells were then washed with PBS and lysed using 10 uL/well SUREFIRE® Kit lysis buffer diluted to 1× in water (PerkinElmer Catalog #TGRCHK1S50K), with mixing on an orbital shaker at 500 rpm for 20 min at RT. Lysates were frozen at −20° C. overnight.
# 4 uL/well of lysate was then transferred from the tissue culture plate to a 384-well, white, low volume, PROXIPLATE™ (PerkinElmer Catalog #600828). 5 uL/well of the acceptor bead solution, prepared by diluting SUREFIRE® Kit activation buffer (PerkinElmer Catalog #TGRCHK1S50K) and ALPHASCREEN® Protein A acceptor beads (PerkinElmer Catalog #6760617R) in SUREFIRE® Kit reaction buffer (PerkinElmer Catalog #TGRCHK1S50K), were added to the lysates under subdued light and incubated at room temperature for 120 min. 2 uL/well of the donor bead solution, prepared by diluting ALPHASCREEN® Streptavidin donor beads (PerkinElmer Catalog #6760617R) in SUREFIRE® Kit dilution buffer (PerkinElmer Catalog #TGRCHK1S50K), were added under subdued light and incubated at room temperature for an addition 120 minutes. The pCHK1 ALPHASCREEN® signal was measured using an ENVISION® plate reader (PerkinElmer). IC50 values were calculated using a four-parameter logistic curve fit using Genedata Screener software. Percent of control for each compound concentration was calculated by the following formula: 100*(Compound−Min)/(Max−Min) where “Max” is the high control, DMSO, and “Min” is the low control, 5 uM ATR inhibitor.
# [2] = read-out: ATR/ATRIP Enzyme IC50
# [3] = Homo sapiens, HT-29, HT-29 cells
# [4] = estimated range, read-out: ATR/ATRIP Enzyme IC50 (estimated class)
# Chain of ATR/ATRIP complex (Q13535 whole entry): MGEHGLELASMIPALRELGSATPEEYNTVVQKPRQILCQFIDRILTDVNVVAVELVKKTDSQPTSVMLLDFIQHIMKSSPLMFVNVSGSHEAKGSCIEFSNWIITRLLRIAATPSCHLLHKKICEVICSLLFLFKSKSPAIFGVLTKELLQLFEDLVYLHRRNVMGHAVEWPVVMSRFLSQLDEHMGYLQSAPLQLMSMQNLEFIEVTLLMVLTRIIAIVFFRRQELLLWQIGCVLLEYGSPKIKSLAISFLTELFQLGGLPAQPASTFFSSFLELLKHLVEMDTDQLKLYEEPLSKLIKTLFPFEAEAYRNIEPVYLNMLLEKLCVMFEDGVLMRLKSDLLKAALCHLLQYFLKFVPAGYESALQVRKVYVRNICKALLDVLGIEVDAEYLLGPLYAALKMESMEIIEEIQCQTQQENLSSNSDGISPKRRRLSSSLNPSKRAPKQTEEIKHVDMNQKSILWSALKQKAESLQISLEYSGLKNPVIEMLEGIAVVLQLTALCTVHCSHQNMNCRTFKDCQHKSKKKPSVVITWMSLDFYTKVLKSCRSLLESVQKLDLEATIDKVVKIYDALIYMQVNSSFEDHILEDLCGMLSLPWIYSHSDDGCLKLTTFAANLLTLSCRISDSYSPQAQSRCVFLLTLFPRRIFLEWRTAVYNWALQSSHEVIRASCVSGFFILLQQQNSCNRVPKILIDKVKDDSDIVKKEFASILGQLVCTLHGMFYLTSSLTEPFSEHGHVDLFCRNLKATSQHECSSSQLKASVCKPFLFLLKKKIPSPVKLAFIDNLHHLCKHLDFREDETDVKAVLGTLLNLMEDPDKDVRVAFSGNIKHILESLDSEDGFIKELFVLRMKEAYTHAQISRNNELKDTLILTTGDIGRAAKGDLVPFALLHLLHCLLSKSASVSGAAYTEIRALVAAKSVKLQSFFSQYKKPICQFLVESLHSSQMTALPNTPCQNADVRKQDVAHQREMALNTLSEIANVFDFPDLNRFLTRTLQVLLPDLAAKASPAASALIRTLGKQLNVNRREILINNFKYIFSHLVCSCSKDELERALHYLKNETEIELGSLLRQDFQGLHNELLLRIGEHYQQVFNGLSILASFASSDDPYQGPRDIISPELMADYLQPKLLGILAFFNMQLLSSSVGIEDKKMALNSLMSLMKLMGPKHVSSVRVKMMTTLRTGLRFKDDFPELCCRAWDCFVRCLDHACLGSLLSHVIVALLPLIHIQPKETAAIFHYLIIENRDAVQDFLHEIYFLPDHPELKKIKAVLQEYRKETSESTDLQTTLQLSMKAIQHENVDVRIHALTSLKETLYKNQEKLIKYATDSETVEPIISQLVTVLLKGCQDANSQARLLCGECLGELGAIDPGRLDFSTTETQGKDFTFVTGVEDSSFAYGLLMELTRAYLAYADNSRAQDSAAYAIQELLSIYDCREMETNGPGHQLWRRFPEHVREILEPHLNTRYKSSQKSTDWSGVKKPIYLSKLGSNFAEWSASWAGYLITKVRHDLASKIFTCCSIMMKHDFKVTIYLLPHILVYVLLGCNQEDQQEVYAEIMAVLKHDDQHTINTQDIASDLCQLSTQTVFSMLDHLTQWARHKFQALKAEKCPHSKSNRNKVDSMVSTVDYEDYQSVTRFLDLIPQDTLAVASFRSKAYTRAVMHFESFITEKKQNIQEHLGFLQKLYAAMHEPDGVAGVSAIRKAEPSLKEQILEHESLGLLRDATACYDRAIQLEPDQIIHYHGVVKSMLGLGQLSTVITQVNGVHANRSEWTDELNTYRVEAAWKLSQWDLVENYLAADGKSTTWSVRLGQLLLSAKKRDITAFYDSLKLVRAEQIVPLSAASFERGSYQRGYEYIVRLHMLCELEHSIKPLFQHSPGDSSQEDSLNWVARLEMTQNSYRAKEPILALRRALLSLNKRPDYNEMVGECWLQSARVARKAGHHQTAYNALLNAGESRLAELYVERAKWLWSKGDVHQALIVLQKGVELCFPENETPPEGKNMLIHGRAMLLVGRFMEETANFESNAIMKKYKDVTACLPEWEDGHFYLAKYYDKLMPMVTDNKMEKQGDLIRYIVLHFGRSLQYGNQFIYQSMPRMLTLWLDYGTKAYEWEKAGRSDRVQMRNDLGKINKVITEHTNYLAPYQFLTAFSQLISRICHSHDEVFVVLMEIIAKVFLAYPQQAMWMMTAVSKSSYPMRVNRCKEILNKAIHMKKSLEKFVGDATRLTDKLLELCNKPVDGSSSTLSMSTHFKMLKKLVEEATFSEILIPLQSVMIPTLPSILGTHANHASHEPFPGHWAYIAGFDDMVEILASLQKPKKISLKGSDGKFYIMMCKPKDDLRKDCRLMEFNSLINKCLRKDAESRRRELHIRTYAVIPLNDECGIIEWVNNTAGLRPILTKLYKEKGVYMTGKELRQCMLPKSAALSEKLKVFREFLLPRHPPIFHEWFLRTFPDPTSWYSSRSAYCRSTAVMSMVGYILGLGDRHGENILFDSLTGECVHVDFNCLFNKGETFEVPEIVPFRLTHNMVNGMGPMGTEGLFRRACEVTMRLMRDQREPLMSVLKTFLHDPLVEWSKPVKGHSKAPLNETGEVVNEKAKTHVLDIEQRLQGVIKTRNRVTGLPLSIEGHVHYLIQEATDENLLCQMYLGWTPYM
# Chain of ATR/ATRIP complex (Q8WXE1 whole entry partner): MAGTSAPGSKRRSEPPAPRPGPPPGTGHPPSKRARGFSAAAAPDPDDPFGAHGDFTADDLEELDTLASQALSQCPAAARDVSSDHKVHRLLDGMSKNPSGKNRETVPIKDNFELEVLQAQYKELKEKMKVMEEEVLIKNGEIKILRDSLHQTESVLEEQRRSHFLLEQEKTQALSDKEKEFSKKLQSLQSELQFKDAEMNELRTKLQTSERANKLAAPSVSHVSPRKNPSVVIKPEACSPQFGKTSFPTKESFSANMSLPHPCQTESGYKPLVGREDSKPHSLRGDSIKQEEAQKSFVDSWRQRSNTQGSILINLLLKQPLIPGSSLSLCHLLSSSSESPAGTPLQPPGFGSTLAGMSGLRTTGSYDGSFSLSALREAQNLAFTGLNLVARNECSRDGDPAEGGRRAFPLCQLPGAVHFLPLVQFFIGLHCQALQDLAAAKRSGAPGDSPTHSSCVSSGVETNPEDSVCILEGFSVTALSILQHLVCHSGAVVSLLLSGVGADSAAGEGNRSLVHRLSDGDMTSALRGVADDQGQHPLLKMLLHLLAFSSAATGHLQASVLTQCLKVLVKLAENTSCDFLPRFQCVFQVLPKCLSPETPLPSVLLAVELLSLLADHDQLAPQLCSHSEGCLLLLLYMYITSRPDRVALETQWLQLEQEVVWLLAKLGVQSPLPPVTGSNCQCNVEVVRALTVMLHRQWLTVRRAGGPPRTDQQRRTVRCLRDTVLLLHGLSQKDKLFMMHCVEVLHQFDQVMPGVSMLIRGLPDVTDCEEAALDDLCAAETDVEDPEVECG
Structure (SMILES),IC50 (ATR/ATRIP complex; [2]) [nM],IC50 ([1]; HT-29 cells) [nM],"IC50 [1, 3] [nM]",IC50 (ATR/ATRIP complex; [4]) [nM]
"C[C@@H]1Cc2ncnc(C3C[C@H]4CC[C@@H](C3)N4S(C)(=O)=O)c2CN1c1cc(Cl)nc2[nH]ccc12 (single isomer, unassigned) [Example 11a]",555,28,–,–
"C[C@@H]1Cc2ncnc(C3C[C@H]4CC[C@@H](C3)N4S(C)(=O)=O)c2CN1c1cc(Cl)nc2[nH]ccc12 (single isomer, unassigned) [Example 11b]",329,29,–,–
"C[C@@H]1Cc2ncnc([C@@H]3CCN(S(C)(=O)=O)C(C)(C)C3)c2CN1c1ccnc2[nH]ccc12 (single isomer, unassigned) [Example 48a]",3330,–,758,–
"C[C@@H]1Cc2ncnc([C@H]3CCN(S(C)(=O)=O)C(C)(C)C3)c2CN1c1ccnc2[nH]ccc12 (single isomer, unassigned) [Example 48b]",435,79,–,–
"C[C@@H]1Cc2ncnc(C3CCCN(S(C)(=O)=O)C3)c2CN1c1ccnc2[nH]ccc12 (single isomer, unassigned) [Example 50a]",1200,–,55,–
"C[C@@H]1Cc2ncnc([C@@H]3CCCN(S(C)(=O)=O)C3)c2CN1c1cc(Cl)nc2[nH]ccc12 (single isomer, unassigned) [Example 51a]",–,11,–,–
"C[C@@H]1Cc2ncnc([C@H]3CCCN(S(C)(=O)=O)C3)c2CN1c1cc(Cl)nc2[nH]ccc12 (single isomer, unassigned) [Example 51b]",–,48,–,–
"C[C@@H]1Cc2ncnc(N3CCCC(C(C)(C)O)C3)c2CN1c1cc(Cl)nc2[nH]ccc12 (stereo in doubt) [Example 45, 2-((R)-1-((R)-6-(6-Chloro-1H-pyrrolo[2,3-b]pyridin-4-yl)-7-methyl-5,6,7,8-tetrahydropyrido[4,3-d]pyrimidin-4-yl)piperidin-3-yl)propan-2-ol]",378,–,39,–
"CS(=O)(=O)c1ccc(-c2ncnc3c2CN(c2ccnc4[nH]ccc24)CC3)cc1 [Example 1, 4-(4-(Methylsulfonyl)phenyl)-6-(1H-pyrrolo[2,3-b]pyridin-4-yl)-5,6,7,8-tetrahydropyrido[4,3-d]pyrimidine bis(trifluoroacetate)]",–,–,1880,1000 to 10000
"CS(=O)(=O)N1CCC(c2ncnc3c2CN(c2ccnc4[nH]ccc24)CC3)CC1 [Example 2, 4-(1-(Methylsulfonyl)piperidin-4-yl)-6-(1H-pyrrolo[2,3-b]pyridin-4-yl)-5,6,7,8-tetrahydropyrido[4,3-d]pyrimidine bis(trifluoroacetate)]",–,–,1940,1000 to 10000
"CC1Cc2ncnc(-c3ccc(S(C)(=O)=O)cc3)c2CN1c1ccnc2[nH]ccc12 (stereo not shown) [Example 3, 7-Methyl-4-(4-(methylsulfonyl)phenyl)-6-(1H-pyrrolo[2,3-b]pyridin-4-yl)-5,6,7,8-tetrahydropyrido[4,3-d]pyrimidine bis(trifluoroacetate)]",1970,–,183,–
"CC1Cc2ncnc(C3CCN(S(C)(=O)=O)CC3)c2CN1c1ccnc2[nH]ccc12 (stereo not shown) [Example 4, 7-Methyl-4-(1-(methylsulfonyl)piperidin-4-yl)-6-(1H-pyrrolo[2,3-b]pyridin-4-yl)-5,6,7,8-tetrahydropyrido[4,3-d]pyrimidine bis(trifluoroacetate)]",833,–,157,–
"C[C@@H]1Cc2ncnc(C3CCN(S(C)(=O)=O)CC3)c2CN1c1ccnc2[nH]ccc12 [Example 6, (R)-7-Methyl-4-(1-(methylsulfonyl)piperidin-4-yl)-6-(1H-pyrrolo[2,3-b]pyridin-4-yl)-5,6,7,8-tetrahydropyrido[4,3-d]pyrimidine bis(trifluoroacetate)]",499,–,52,–
"C[C@@H]1Cc2ncnc(C3CCN(S(C)(=O)=O)CC3)c2CN1c1cc(Cl)nc2[nH]ccc12 [Example 7, (R)-6-(6-Chloro-1H-pyrrolo[2,3-b]pyridin-4-yl)-7-methyl-4-(1-(methylsulfonyl)-piperidin-4-yl)-5,6,7,8-tetrahydropyrido[4,3-d]pyrimidine bis(trifluoroacetate)]",163,–,32,–
"C[C@@H]1Cc2ncnc(N3CC(NS(C)(=O)=O)C3)c2CN1c1cc(Cl)nc2[nH]ccc12 [Example 35, N-{1-[(7R)-6-{6-chloro-1H-pyrrolo[2,3-b]pyridin-4-yl}-7-methyl-5H,6H,7H,8H-pyrido[4,3-d]pyrimidin-4-yl]azetidin-3-yl}methanesulfonamide]",–,–,34,–
"C[C@@H]1Cc2ncnc(N3CC(S(C)(=O)=O)C3)c2CN1c1ccnc2[nH]ccc12 [Example 36, 3-methanesulfonyl-1-[(7R)-7-methyl-6-{1H-pyrrolo[2,3-b]pyridin-4-yl}-5H,6H,7H,8H-pyrido[4,3-d]pyrimidin-4-yl]azetidine]",–,–,128,–
"C[C@@H]1Cc2ncnc(N3C[C@H]4CC[C@@H](C3)[C@H]4NS(C)(=O)=O)c2CN1c1cc(Cl)nc2[nH]ccc12 [Example 39, N-((1R,5S)-(8-syn)-3-((R)-6-(6-chloro-1H-pyrrolo[2,3-b]pyridin-4-yl)-7-methyl-5,6,7,8-tetrahydropyrido[4,3-d]pyrimidin-4-yl)-3-azabicyclo[3.2.1]octan-8-yl)methanesulfonamide]",–,–,27,–
"C[C@@H]1Cc2ncnc(C3CCN(S(C)(=O)=O)CC3)c2CN1c1ncnc2[nH]ccc12 [Example 43, (R)-7-methyl-4-(1-(methylsulfonyl)piperidin-4-yl)-6-(7H-pyrrolo[2,3-d]pyrimidin-4-yl)-5,6,7,8-tetrahydropyrido[4,3-d] pyrimidine]",–,–,–,1000 to 10000
"C[C@@H]1Cc2ncnc(N3CCC(S(C)(=O)=O)CC3)c2CN1c1ccnc2[nH]ccc12 [Example 88, (R)-7-methyl-4-(4-(methylsulfonyl)-piperidin-1-yl)-6-(1H-pyrrolo[2,3-b]pyridin-4-yl)-5,6,7,8-tetrahydro-pyrido[4,3-d]pyrimidine]",615,–,–,–
